PMC9323974, “Palladium(II) Complexes of Substituted Salicylaldehydes: Synthesis, Characterization and Investigation of Their Biological Profile” (Pharmaceuticals, 2022)

How the values were obtained:
[1] = test system: EB-DNA adduct (CT DNA); test: EB-displacement from EB-DNA (fluorescence); assay type: binding, calf; conditions: for ΔΙ/Ι0 (%) EB-DNA fluorescence quenching: [EB] = 20 μM, [DNA] = 26 μM; for kq (EB-DNA quenching constant): τo = 23 ns; for EB-DNA relative fluorescence emission intensity, % of the initial: λemission = 592 nm, final value
Protocol: page 8: […] spectroscopy, viscosity measurements and fluorescence emission spectroscopy studies. […] UV-vis spectroscopy was used for the evaluation of the interaction of the compounds with CT DNA, and specifically the possible binding modes of the compounds to CT DNA. Control experiments with DMSO were performed and no changes in the spectra of CT DNA were observed. In order to determine the binding mode, the UV-vis spectra of the compounds were […] concentrations of CT DNA for diverse r (r = [complex]/[DNA]) values. Effective use of the changes […] compounds were calculated by the Wolfe-[…] equation (eq. […] εf) versus [DNA]: (eq. S1) where [DNA] = the concentration of DNA in base pairs, ε f= the extinction coefficient for the free compound at the corresponding λmax, εA = Aobsd/[compound] and εb= the extinction coefficient for the compound in the fully bound form. K b is given by the ratio of slope to the y intercept in plots [DNA]/(εA-εf) versus [DNA]. S3.2 CT DNA-binding studies by viscosity measurements […] presence of increasing amounts of the compounds. The experiments were executed at room temperature and the measurements are devised in a plot (η/η 0)1/3 versus r, where η = the viscosity of DNA in the presence of the compound, and η0 = the viscosity of neat DNA in buffer solution. […] In order to determine and confirm the DNA-binding mode of the compounds, a competitive study with EB as an intercalating marker is performed by fluorescence emission spectroscopy. Therefore, the EB-displacing ability of the compounds from its EB-DNA conjugate was examined. […] solution (150 mM NaCl and 15 mM trisodium citrate at pH 7.0). The potential intercalation of the compounds between the DNA-bases was studied by the addition of a certain amount of the 8 (1 picture or pasted object on this page, not shown here) page 9: compound solution into the EB-DNA adduct solution. The influence of the compounds on the EB- DNA solution was monitored through the changes of the fluorescence emission spectra at excitation wavelength (λex) at 540 nm [S6]. […] Bearing that in mind, the observed quenching of the EB-DNA solution is evidently associated to the displacement of EB from its EB-DNA adduct. The quenching efficiency (KSV) for each compound was assessed according to the Stern - Volmer equation (eq. S2) [S6]: (eq. S2) where I0 and I = the fluorescence emission intensities of EB-DNA in the absence and presence of the quencher, respectively, [Q] = the concentration of the quencher (i.e. compounds). K SV is obtained from the Stern-Volmer plots by the slope of the diagram I0/I versus [Q]. Taking τ0 = 23 ns […] M-1s-1) of the compounds can be determined according to e quation S3: KSV = kqτo (eq. S3) 9 (1 picture or pasted object on this page, not shown here)

[2] = target: T1, BSA (Bos taurus, UniProt P02769); test: BSA fluorescence quenching; assay type: binding, bovine; conditions: for ΔΙ/Ιο (%) BSA fluorescence quenching: BSA 3 μM; for K BSA-binding constant: Scatchard; for relative BSA-fluorescence emission intensity, % of the initial: final value
T1 construct: purchased Sigma-Aldrich Co
Protocol: (§1) S4 Interaction with serum albumins
(§2) S4.1 Study of the affinity for serum albumins
(§3) The albumin–binding study for the compounds was carried out by fluorescence emission quenching experiments using BSA (3 μM) or HSA (3 μM) in buffer solution (15 mM trisodium citrate and 150 mM NaCl at pH 7.0). The tested compounds were used as quenchers with gradually increasing concentrations to monitor the quenching of the emission intensity of tryptophan residues of BSA at 345 nm or HSA at 340 nm [S6]. The fluorescence emission spectra were recorded between 300–500 nm with excitation wavelength of 295 nm. All the experiments were conducted at room temperature. The fluorescence spectra of the compounds were recorded under the same experimental conditions and presented a low–intensity emission band in the region 395–415 nm.
(§4) Consequently, the SA fluorescence emission spectra were modified properly, by subtracting the spectra of the compounds, and quantitative studies followed.
(§5) The extent of the inner–filter effect can be roughly estimated with the following formula: […]
(§6) where Icorr= corrected intensity, Imeas= the measured intensity, c = the concentration of the quencher, d = the cuvette length (1 cm), ε(λexc) and ε(λem) = the ε of the quencher at the excitation and the emission wavelength, respectively, as calculated from the UV –vis spectra of the complexes [S 8].
(§7) The interaction of the quencher (i.e. compounds) with serum albumins [S6] was studied through the Stern–Volmer and Scatchard equations [S6] and corresponding graphs. The values of the respective Stern–Volmer constant KSV (M–1), the quenching constant k q (M–1s–1), the SA– binding constant K (M–1) and the number of binding sites per albumin (n) were calculated.
(§8) According to Stern–Volmer quenching equation [S6] (eq. S2), where I 0 = the initial tryptophan fluorescence intensity of SA, I = the tryptophan fluorescence intensity of SA after the addition of the quencher, kq = the quenching rate constants of SA, K SV = the dynamic quenching constant, τ0 = the average lifetime of SA without the quencher, [Q] = the concentration of the quencher), the Stern –Volmer constant (KSV, M–1) can be obtained by the slope of the diagram I0/I versus [Q]. Taking τ0 = 10–8 s as fluorescence lifetime of tryptophan in SA [S2], the quenching constant (kq, M–1s–1) is calculated from equation S3.
(§9) From the Scatchard equation (eq. S5) [S6]: […]
(§10) (1 picture or pasted object on this page, not shown here) […]
(§11) where n = the number of binding sites per albumin and K = the SA–binding constant. The K constant (M−1) is calculated from the slope in plots (ΔI/I0)/[Q] versus (ΔI/I0) and n is given by the ratio of y intercept to the slope [S9]. […]

[3] = target: T2, HSA (Homo sapiens, UniProt P02768); test: HSA fluorescence quenching; assay type: binding; conditions: for ΔΙ/Ιο (%) HSA fluorescence quenching: HSA 3 μM; for K HSA-binding constant: Scatchard; for relative HSA-fluorescence emission intensity, % of the initial: final value
T2 construct: purchased Sigma-Aldrich Co
Protocol: as §1, §2, §3, §4, §5, §6, §7, §8, §9, §10, §11

T1 sequence (P02769 25-607): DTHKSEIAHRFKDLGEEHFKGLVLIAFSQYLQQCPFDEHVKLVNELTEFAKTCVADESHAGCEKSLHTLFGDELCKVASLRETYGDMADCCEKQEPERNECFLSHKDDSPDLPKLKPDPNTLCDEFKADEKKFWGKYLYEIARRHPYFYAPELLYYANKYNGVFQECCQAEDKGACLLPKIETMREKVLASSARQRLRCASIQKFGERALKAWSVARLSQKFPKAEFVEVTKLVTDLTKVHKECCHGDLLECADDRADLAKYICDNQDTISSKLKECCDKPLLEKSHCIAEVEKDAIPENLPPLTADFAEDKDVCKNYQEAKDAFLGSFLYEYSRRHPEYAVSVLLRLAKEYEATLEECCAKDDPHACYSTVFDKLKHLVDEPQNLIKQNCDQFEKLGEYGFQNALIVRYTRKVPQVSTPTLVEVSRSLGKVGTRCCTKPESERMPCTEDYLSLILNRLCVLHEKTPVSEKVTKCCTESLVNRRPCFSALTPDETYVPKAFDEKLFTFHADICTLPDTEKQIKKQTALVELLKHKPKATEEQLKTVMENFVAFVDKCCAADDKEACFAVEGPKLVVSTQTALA
T2 sequence (P02768 25-609): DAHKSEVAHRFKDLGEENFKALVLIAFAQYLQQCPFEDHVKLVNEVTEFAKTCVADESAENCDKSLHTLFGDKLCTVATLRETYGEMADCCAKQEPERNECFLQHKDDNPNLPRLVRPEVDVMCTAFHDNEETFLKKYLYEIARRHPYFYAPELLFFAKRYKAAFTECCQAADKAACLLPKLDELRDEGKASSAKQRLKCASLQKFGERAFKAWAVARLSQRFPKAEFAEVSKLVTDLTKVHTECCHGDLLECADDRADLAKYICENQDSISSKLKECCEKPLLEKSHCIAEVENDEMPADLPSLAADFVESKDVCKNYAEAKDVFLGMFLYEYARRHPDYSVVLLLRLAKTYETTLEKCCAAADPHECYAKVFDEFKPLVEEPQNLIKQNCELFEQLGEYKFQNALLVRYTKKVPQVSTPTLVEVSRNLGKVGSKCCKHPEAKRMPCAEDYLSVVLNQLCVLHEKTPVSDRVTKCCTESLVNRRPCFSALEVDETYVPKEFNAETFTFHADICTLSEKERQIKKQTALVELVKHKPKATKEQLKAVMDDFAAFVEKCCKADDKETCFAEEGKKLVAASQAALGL

## CCN(CC)c1ccc(C=O)c(O)c1 [4-Et2N-saloH, 4-diethylamino-salicylaldehyde, reference compound]
[1]
  KSV (Stern–Volmer constant), EB-DNA: 2.89 (±0.07) × 10^4 M^−1
  ΔΙ/Ι0 (%) EB-DNA fluorescence quenching: 43.4%
  kq (EB-DNA quenching constant): 1.25 (±0.03) × 10^12 M^−1s^−1
[2]
  Kd: 2.4 µM
  kq BSA-quenching constant: 1.41 (±0.06) × 10^13 M^−1 s^−1
[3]
  Kd: 2.48 µM
  kq HSA-quenching constant: 2.10 (±0.22) × 10^13 M^−1 s^−1

## COc1ccc(C=O)c(O)c1 [4-OMe-saloH, 4-methoxy-salicylaldehyde, reference compound]
[3]
  Kd: 10.3 µM
  kq HSA-quenching constant: 2.28 (±0.13) × 10^12 M^−1 s^−1

## O=Cc1cc(F)ccc1O [5-F-saloH, 5-fluoro-salicylaldehyde, reference compound]
[1]
  KSV (Stern–Volmer constant), EB-DNA: 3.79 (±0.11) × 10^4 M^−1
  ΔΙ/Ι0 (%) EB-DNA fluorescence quenching: 51.3%
  kq (EB-DNA quenching constant): 1.73 (±0.05) × 10^12 M^−1s^−1
[2]
  Kd: 23.2 µM
  kq BSA-quenching constant: 1.98 (±0.08) × 10^12 M^−1 s^−1
[3]
  Kd: 21.5 µM
  kq HSA-quenching constant: 1.96 (±0.07) × 10^12 M^−1 s^−1

## CCN(CC)c1ccc(C=O)c([O][Pd][O]c2cc(N(CC)CC)ccc2C=O)c1 [Complex 1, [Pd(4-Et2N-salo)2]]
[1]
  KSV (Stern–Volmer constant), EB-DNA: 1.03 (±0.02) × 10^5 M^−1
  ΔΙ/Ι0 (%) EB-DNA fluorescence quenching: 51.2%
  EB-DNA relative fluorescence emission intensity, % of the initial: 48.8%
  kq (EB-DNA quenching constant): 4.49 (±0.09) × 10^12 M^−1s^−1
[2]
  kq BSA-quenching constant: 5.72 (±0.44) × 10^13 M^−1 s^−1
  ΔΙ/Ιο (%) BSA fluorescence quenching: 92.9%
  K BSA-binding constant: 1.08 (±0.06) × 10^5 M^−1
  relative BSA-fluorescence emission intensity, % of the initial: 7.2%
[3]
  kq HSA-quenching constant: 3.48 (±0.14) × 10^13 M^−1 s^−1
  ΔΙ/Ιο (%) HSA fluorescence quenching: 91.8%
  K HSA-binding constant: 1.25 (±0.06) × 10^5 M^−1
  relative HSA-fluorescence emission intensity, % of the initial: 8.2%

## O=Cc1cc(Br)cc(Br)c1[O][Pd][O]c1c(Br)cc(Br)cc1C=O [Complex 2, [Pd(3,5-diBr-salo)2]]
[1]
  KSV (Stern–Volmer constant), EB-DNA: 1.00 (±0.02) × 10^5 M^−1
  ΔΙ/Ι0 (%) EB-DNA fluorescence quenching: 64.8%
  EB-DNA relative fluorescence emission intensity, % of the initial: 35.2%
  kq (EB-DNA quenching constant): 4.35 (±0.10) × 10^12 M^−1s^−1
[2]
  kq BSA-quenching constant: 2.11 (±0.08) × 10^14 M^−1 s^−1
  ΔΙ/Ιο (%) BSA fluorescence quenching: 97.5%
  K BSA-binding constant: 1.50 (±0.06) × 10^6 M^−1
  relative BSA-fluorescence emission intensity, % of the initial: 2.5%
[3]
  kq HSA-quenching constant: 4.22 (±0.13) × 10^13 M^−1 s^−1
  ΔΙ/Ιο (%) HSA fluorescence quenching: 88.8%
  K HSA-binding constant: 4.12 (±0.15) × 10^5 M^−1
  relative HSA-fluorescence emission intensity, % of the initial: 11.2%

## O=Cc1cc(Cl)cc(Cl)c1[O-].O=Cc1cc(Cl)cc(Cl)c1[O-].[Pd+2] [Complex 3, [Pd(3,5-diCl-salo)2]]
[1]
  KSV (Stern–Volmer constant), EB-DNA: 7.53 (±0.18) × 10^4 M^−1
  ΔΙ/Ι0 (%) EB-DNA fluorescence quenching: 60.6%
  EB-DNA relative fluorescence emission intensity, % of the initial: 39.4%
  kq (EB-DNA quenching constant): 3.27 (±0.08) × 10^12 M^−1s^−1
[2]
  kq BSA-quenching constant: 1.11 (±0.04) × 10^14 M^−1 s^−1
  ΔΙ/Ιο (%) BSA fluorescence quenching: 97.2%
  K BSA-binding constant: 7.82 (±0.24) × 10^5 M^−1
  relative BSA-fluorescence emission intensity, % of the initial: 2.8%
[3]
  kq HSA-quenching constant: 5.00 (±0.12) × 10^13 M^−1 s^−1
  ΔΙ/Ιο (%) HSA fluorescence quenching: 90.4%
  K HSA-binding constant: 4.10 (±0.17) × 10^5 M^−1
  relative HSA-fluorescence emission intensity, % of the initial: 9.6%

## O=Cc1cc(F)ccc1[O-].O=Cc1cc(F)ccc1[O-].[Pd+2] [Complex 4, [Pd(5-F-salo)2]]
[1]
  KSV (Stern–Volmer constant), EB-DNA: 5.71 (±0.10) × 10^4 M^−1
  ΔΙ/Ι0 (%) EB-DNA fluorescence quenching: 51.4%
  EB-DNA relative fluorescence emission intensity, % of the initial: 48.6%
  kq (EB-DNA quenching constant): 2.48 (±0.04) × 10^12 M^−1s^−1
[2]
  kq BSA-quenching constant: 2.24 (±0.14) × 10^13 M^−1 s^−1
  ΔΙ/Ιο (%) BSA fluorescence quenching: 85.7%
  K BSA-binding constant: 8.79 (±0.13) × 10^4 M^−1
  relative BSA-fluorescence emission intensity, % of the initial: 14.3%
[3]
  kq HSA-quenching constant: 1.82 (±0.06) × 10^13 M^−1 s^−1
  ΔΙ/Ιο (%) HSA fluorescence quenching: 75.7%
  K HSA-binding constant: 1.38 (±0.05) × 10^5 M^−1
  relative HSA-fluorescence emission intensity, % of the initial: 24.3%

## COc1ccc(C=O)c([O-])c1.COc1ccc(C=O)c([O-])c1.[Pd+2] [Complex 5, [Pd(4-OMe-salo)2]]
[1]
  KSV (Stern–Volmer constant), EB-DNA: 4.26 (±0.08) × 10^4 M^−1
  ΔΙ/Ι0 (%) EB-DNA fluorescence quenching: 44.2%
  EB-DNA relative fluorescence emission intensity, % of the initial: 55.8%
  kq (EB-DNA quenching constant): 1.85 (±0.04) × 10^12 M^−1s^−1
[2]
  kq BSA-quenching constant: 2.17 (±0.09) × 10^14 M^−1 s^−1
  ΔΙ/Ιο (%) BSA fluorescence quenching: 97.2%
  K BSA-binding constant: 9.18 (±0.27) × 10^5 M^−1
  relative BSA-fluorescence emission intensity, % of the initial: 2.8%
[3]
  kq HSA-quenching constant: 6.69 (±0.23) × 10^13 M^−1 s^−1
  ΔΙ/Ιο (%) HSA fluorescence quenching: 92.2%
  K HSA-binding constant: 3.56 (±0.12) × 10^5 M^−1
  relative HSA-fluorescence emission intensity, % of the initial: 7.8%
